{"source": "patent EP1372661B1", "about": "“GLYCOL DERIVATVES OF XANTHINES FOR TREATING IRRITABLE BOWEL SYNDROME” (SMITHKLINE BEECHAM CORPORATION, priority 2001, dated 2002)", "test_system": "Zymosan-sensitized rats", "assay": "Rodent model of zymosan-induced hyperalgesia: visceromotor response to colorectal distension", "format": "in vivo, Adult male Sprague-Dawley rats", "conditions": "intracolonic zymosan (1 mL, 25 mg/mL), CRD 80 mm Hg, 20 seconds, four hours after zymosan, baseline = 100% of control", "excerpt": "Protocol for Evaluation of (E)-4-(1,3-bis(cyclohexylmethyl)-1,2,3,6-tetrahydro-2,6-dioxo-9H-purin-8-yl)cinnamic acid nonaethylene glycol methyl ether ester in a Rodent Model of Zymosan-Induced Hyperalgesia\nAdult male Sprague-Dawley rats (400-425 g) housed 1-2 per cage in the animal care facility at the University of Iowa (approved by the American Association for Accreditation of Laboratory Animal Care). All experimental procedures were approved by the Institutional Animal Care and Use Committee at the University of Iowa.\nRats were deeply anesthetized with pentobarbital sodium (45 mg/kg) administered intraperitoneally. […]\nThe descending colon and rectum were distended by pressure-controlled inflation of a 7-8-cm-long flexible latex balloon tied around a flexible tube. […] Intracolonic pressure was continuously monitored by the aid of a pressure control device. Response was quantified as the visceromotor response (VMR), a contraction of the abdominal and hindlimb musculature. EMG activity produced by contraction of the external oblique musculature was quantified using Spike2 software (Cambridge Electronic Designs). Each distension trial lasted 60 seconds, and EMG activity was quantitated in 1-second bins for 20 seconds before distension (baseline), during distention, and 20 seconds after distention. The increase in total number of recorded counts during distention is defined as the response. […]", "data": [{"smiles": "COCCOCCOCCOCCOCCOCCOCCOCCOCCOC(=O)/C=C/c1ccc(-c2nc3c([nH]2)c(=O)n(CC2CCCCC2)c(=O)n3CC2CCCCC2)cc1", "note": "[(E)-4-(1,3-bis(cyclohexylmethyl)-1,2,3,6-tetrahydro-2,6-dioxo-9H-purin-8-yl)cinnamic acid nonaethylene glycol methyl ether ester]", "values": [{"measurement": "response to colorectal distention (CRD) (as a percent of control)", "setting": "12.5 mg/kg oral gavage at time 0 and 16 hours", "value": "effectively decreased the response to colorectal distention down to baseline levels"}, {"measurement": "response to colorectal distention (CRD) (as a percent of control)", "setting": "25 mg/kg oral gavage at time 0 and 16 hours", "value": "effectively decreased the response to colorectal distention down to baseline levels"}]}]}
